Laboratory results taken from patent EP0344425A2, “N-[[(2,6-disubstituted)phenyl]-N'- arylalkyl] ureas as antihypercholesterolemic and antiatherosclerotic agents” (WARNER-LAMBERT COMPANY, priority 1988, dated 1989).

Biological target: acyl-CoA:cholesterol acyltransferase (ACAT)
Test: in vitro ACAT inhibition test (formation of radio-labeled cholesterol oleate from radio-labeled oleic acid in rabbit intestinal microsomes)
Assay type: biochemical
Settings: tissue preparation containing rabbit intestinal microsomes; acylation of cholesterol by oleic acid; read-out: IC₅₀

IC50 [nM]	SMILES
30	CCCC(CCC)(CNC(=O)Nc1c(C(C)C)cccc1C(C)C)c1ccccc1 [Example 1, N-[2,6-bis(1-Methylethyl)phenyl]-N′-(2-phenyl-2-propylpentyl)urea]
17	CCC(CC)(CNC(=O)Nc1c(C(C)C)cccc1C(C)C)c1ccccc1 [Example 2, N-[2,6-bis(1-Methylethyl)phenyl]-N′-(2-ethyl-2-phenylbutyl)urea]
30	CCCCC(CCCC)(CNC(=O)Nc1c(C(C)C)cccc1C(C)C)c1ccccc1 [Example 5, N-[2,6-bis(1-Methylethyl)phenyl]-N′-(2-butyl-2-phenylhexyl)urea]
88	CC(C)c1cccc(C(C)C)c1NC(=O)NCCc1ccccc1 [Example 6, N-[2,6-bis(1-Methylethyl)phenyl]-N′-(2-phenylethyl)urea]
35	CC(C)c1cccc(C(C)C)c1NC(=O)NCC(C)c1ccccc1 (stereo not shown) [Example 7]
191	CC(C)c1cccc(C(C)C)c1NC(=O)NCCCc1ccccc1 [Example 8, N-[2,6-bis(1-Methylethyl)phenyl]-N′-(3-phenylpropyl)urea]
34	CC(C)c1cccc(C(C)C)c1NC(=O)NCc1cccc2ccccc12 [Example 9, N-[2,6-bis(1-Methylethyl)phenyl]-N′-[(1-naphthalenyl)methyl]urea]
41	CC(C)c1cccc(C(C)C)c1NC(=O)NCCc1cccc2ccccc12 [Example 10, N-[2,6-bis(1-Methylethyl)phenyl]-N′-[2-(1-naphthalenyl)ethyl]urea]
35	CC(C)c1cccc(C(C)C)c1NC(=O)N[C@H](C)c1cccc2ccccc12 [Example 12, [R]-N-[2,6-bis(1-Methylethyl)phenyl]-N′-[1-(1-naphthalenyl)ethyl]urea]
630	CC(C)c1cccc(C(C)C)c1NC(=O)N[C@@H](C)c1cccc2ccccc12 [Example 13, [S]-N-[2,6-bis(1-Methylethyl)phenyl]-N′-[1-(1-naphthalenyl)ethyl]urea]
